Data as given in US20120029187A1, “HALOALKYLSULFONANILIDE DERIVATIVE” (Nissan Chemical Industries, Ltd., priority 2009, published 2012).

Experiments:
Type in all cases: in vivo
[1] = test system: transplanted rice; assay: Test Example 1: preemergence treatment under submerged conditions, effect on crop; settings: dose 2.52 g/a
Method in brief: (§1)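 Alluvial soil flooded to 4 cm depth; barnyardgrass, bulrush and ducksalad sown and 2.5-leaf rice seedlings transplanted. Same day, water-diluted emulsifiable concentrates applied to the water surface at set doses (g/a). Kept at 25–30 °C in greenhouse; effects scored 0–5 by mortality after three weeks.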

[2] = test system: barnyardgrass; assay: Test Example 2: herbicidal effects during the vegetation period under submerged conditions; settings: treatment during the vegetation period under submerged conditions; dose 2.52 g/a
Method in brief: (§2)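 Barnyardgrass, bulrush and ducksalad were co-sown in alluvial soil flooded to 4 cm and grown in a greenhouse at 25 to 30° C. At the 1- or 2-leaf stage, water-diluted emulsifiable concentrates went onto the water surface at set doses (g/a). Herbicidal effect was scored three weeks later on a graded scale.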

[3] = test system: bulrush; assay: as above; settings: treatment during the vegetation period under submerged conditions; dose 2.52 g/a
Method in brief: as §2

[4] = test system: ducksalad; assay: as above; settings: treatment during the vegetation period under submerged conditions; dose 2.52 g/a
Method in brief: as §2

[5] = test system: barnyardgrass; assay: Test Example 1: herbicidal effects in preemergence treatment under submerged conditions; settings: dose 2.52 g/a
Method in brief: as §1

[6] = test system: bulrush; assay: as above; settings: dose 2.52 g/a
Method in brief: as §1

[7] = test system: ducksalad; assay: as above; settings: dose 2.52 g/a
Method in brief: as §1

[8] = test system: large crabgrass; assay: Test Example 3: herbicidal effects in soil treatment; settings: dose 3.2 g/a
Method in brief: (§3)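 Seeds were sown in sterilized diluvial soil and covered with about 1.5 cm of soil. Compounds, formulated as emulsifiable concentrates and diluted with water, were sprayed evenly over the soil surface at set doses in g/a. Herbicidal effect was scored on a rating scale three weeks later.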

[9] = test system: barnyardgrass; assay: as above; settings: dose 3.2 g/a
Method in brief: as §3

[10] = test system: wild oat; assay: as above; settings: dose 3.2 g/a
Method in brief: as §3

[11] = test system: posumbu knotweed; assay: as above; settings: dose 3.2 g/a
Method in brief: as §3

[12] = test system: beadstraw; assay: as above; settings: dose 3.2 g/a
Method in brief: as §3

[13] = test system: giant foxtail; assay: as above; settings: dose 3.2 g/a
Method in brief: as §3

[14] = test system: water foxtail; assay: as above; settings: dose 3.2 g/a
Method in brief: as §3

[15] = test system: common lambsquater; assay: as above; settings: dose 3.2 g/a
Method in brief: as §3

[16] = test system: common ragweed; assay: as above; settings: dose 3.2 g/a
Method in brief: as §3

[17] = test system: velvetleaf; assay: as above; settings: dose 3.2 g/a
Method in brief: as §3

[18] = test system: Italian ryegrass; assay: as above; settings: dose 3.2 g/a
Method in brief: as §3

[19] = test system: redroot pigweed; assay: as above; settings: dose 3.2 g/a
Method in brief: as §3

[20] = test system: common chickweed; assay: as above; settings: dose 3.2 g/a
Method in brief: as §3

[21] = test system: large crabgrass; assay: Test Example 4: herbicidal effect in foliage treatment; settings: dose 3.2 g/a, three weeks after the application
Method in brief: (§4)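 Seeds were spot-sown in boxes of sterilized diluvial soil and raised in a greenhouse (25 to 30° C) for 14 days before a single foliar application. Compounds were applied as emulsifiable concentrates diluted with water, at predetermined doses in g/a. Injury was graded three weeks post-spray.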

[22] = test system: barnyardgrass; assay: as above; settings: dose 3.2 g/a, three weeks after the application
Method in brief: as §4

[23] = test system: wild oat; assay: as above; settings: dose 3.2 g/a, three weeks after the application
Method in brief: as §4

[24] = test system: posumbu knotweed; assay: as above; settings: dose 3.2 g/a, three weeks after the application
Method in brief: as §4

[25] = test system: beadstraw; assay: as above; settings: dose 3.2 g/a, three weeks after the application
Method in brief: as §4

[26] = test system: giant foxtail; assay: as above; settings: dose 3.2 g/a, three weeks after the application
Method in brief: as §4

[27] = test system: water foxtail; assay: as above; settings: dose 3.2 g/a, three weeks after the application
Method in brief: as §4

[28] = test system: common lambsquater; assay: as above; settings: dose 3.2 g/a, three weeks after the application
Method in brief: as §4

[29] = test system: common ragweed; assay: as above; settings: dose 3.2 g/a, three weeks after the application
Method in brief: as §4

[30] = test system: velvetleaf; assay: as above; settings: dose 3.2 g/a, three weeks after the application
Method in brief: as §4

[31] = test system: Italian ryegrass; assay: as above; settings: dose 3.2 g/a, three weeks after the application
Method in brief: as §4

[32] = test system: redroot pigweed; assay: as above; settings: dose 3.2 g/a, three weeks after the application
Method in brief: as §4

[33] = test system: common chickweed; assay: as above; settings: dose 3.2 g/a, three weeks after the application
Method in brief: as §4

## CN1COCN(Cc2ccccc2NS(=O)(=O)C(F)(F)F)C1=O [IV-1]
[1]
  a: transplanted rice, effect on crop (evaluation scale 0-5): 0 (mortality of less than 5% (almost ineffective))
[2]
  A: barnyardgrass, herbicidal effect (evaluation scale 0-5): 4 (mortality of at least 70% and less than 90%)
[3]
  B: bulrush, herbicidal effect (evaluation scale 0-5): 5 (mortality of 90% or above (nearly complete death))
[4]
  C: ducksalad, herbicidal effect (evaluation scale 0-5): 4 (mortality of at least 70% and less than 90%)
[5]
  A: barnyardgrass, herbicidal effect (evaluation scale 0-5): 5 (mortality of 90% or above (nearly complete death))
[6]
  B: bulrush, herbicidal effect (evaluation scale 0-5): 5 (mortality of 90% or above (nearly complete death))
[7]
  C: ducksalad, herbicidal effect (evaluation scale 0-5): 4 (mortality of at least 70% and less than 90%)
[8]
  herbicidal effect, D: large crabgrass: 4 (mortality of at least 70% and less than 90%)
[9]
  herbicidal effect, A: barnyardgrass: 5 (mortality of 90% or above (nearly complete death))
[10]
  herbicidal effect, F: wild oat: 0 (mortality of less than 5% (almost ineffective))
[11]
  herbicidal effect, M: posumbu knotweed: 0 (mortality of less than 5% (almost ineffective))
[12]
  herbicidal effect, O: beadstraw: 0 (mortality of less than 5% (almost ineffective))
[13]
  herbicidal effect, E: giant foxtail: 3 (mortality of at least 40% and less than 70%)
[14]
  herbicidal effect, G: water foxtail: 5 (mortality of 90% or above (nearly complete death))
[15]
  herbicidal effect, L: common lambsquater: 0 (mortality of less than 5% (almost ineffective))
[16]
  herbicidal effect, J: common ragweed: 2 (mortality of at least 20% and less than 40%)
[17]
  herbicidal effect, I: velvetleaf: 3 (mortality of at least 40% and less than 70%)
[18]
  herbicidal effect, H: Italian ryegrass: 0 (mortality of less than 5% (almost ineffective))
[19]
  herbicidal effect, K: redroot pigweed: 0 (mortality of less than 5% (almost ineffective))
[20]
  herbicidal effect, N: common chickweed: 0 (mortality of less than 5% (almost ineffective))
[21]
  D: large crabgrass, herbicidal effect: 4 (mortality of at least 70% and less than 90%)
[22]
  A: barnyardgrass, herbicidal effect: 4 (mortality of at least 70% and less than 90%)
[23]
  F: wild oat, herbicidal effect: 0 (mortality of less than 5% (almost ineffective))
[24]
  M: posumbu knotweed, herbicidal effect: 0 (mortality of less than 5% (almost ineffective))
[25]
  O: beadstraw, herbicidal effect: 3 (mortality of at least 40% and less than 70%)
[26]
  E: giant foxtail, herbicidal effect: 3 (mortality of at least 40% and less than 70%)
[27]
  G: water foxtail, herbicidal effect: 5 (mortality of 90% or above (nearly complete death))
[28]
  L: common lambsquater, herbicidal effect: 0 (mortality of less than 5% (almost ineffective))
[29]
  J: common ragweed, herbicidal effect: 1 (mortality of at least 5% and less than 20%)
[30]
  I: velvetleaf, herbicidal effect: 5 (mortality of 90% or above (nearly complete death))
[31]
  H: Italian ryegrass, herbicidal effect: 3 (mortality of at least 40% and less than 70%)
[32]
  K: redroot pigweed, herbicidal effect: 0 (mortality of less than 5% (almost ineffective))
[33]
  N: common chickweed, herbicidal effect: 1 (mortality of at least 5% and less than 20%)
